Assay results as given in publication PMC8205226, “HIV-1 Integrase Inhibitors with Modifications That Affect Their Potencies against Drug Resistant Integrase Mutants” (ACS Infectious Diseases, 2021).
Read-outs that look alike come from different tables or passages of the source.

Columns and labels:
HIV-1 IN mutant Y143R [1] = conditions: single round infection; previously reported; cited from earlier work
WT HIV-1 = conditions: vector carrying WT HIV-1 IN, single round infection; previously reported; cited from earlier work
HIV-1 IN mutant N155H [2] = conditions: single round infection; previously reported; cited from earlier work
HIV-1 IN mutant G118R [3] = assay: single-round infectivity assay, G118R IN mutant; type: cell-based
Procedure, shortened: (§1)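 EC50 measured in single-round infection with HIV-1 pNLNgoMIVR-ΔENV.LUC-based vectors carrying the IN mutation, luciferase reporter. IN mutants generated by site-directed mutagenesis; n = 4 independent experiments, each in triplicate.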

HIV-1 IN mutant R231K = assay: single-round infectivity assay, R231K IN mutant; type: cell-based; conditions: EC50 compound / EC50 DTG
Procedure, shortened: (§2)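 Antiviral EC50 determined in single-round infection using HIV-1 vector pNLNgoMIVR-ΔENV.LUC (luciferase reporter) carrying the IN mutation, made by site-directed mutagenesis; WT vector run alongside. Values from n = 4 independent experiments, each in triplicate, reported with standard deviations.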

HIV-1 IN mutant P142H = assay: single-round infectivity assay, P142H IN mutant; type: cell-based
Procedure, shortened: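 EC50 was obtained in a single-round infection assay using the luciferase-reporter, Env-deleted HIV-1 vector pNLNgoMIVR-ΔENV.LUC carrying the P142H integrase mutation made by site-directed mutagenesis. Data are from four independent experiments, each in triplicate.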

HIV-1 IN mutant R231G = assay: single-round infectivity assay, R231G IN mutant; type: cell-based
Procedure, shortened: as §2

HIV-1 IN mutant S230R = assay: single-round infectivity assay, S230R IN mutant; type: cell-based
Procedure, shortened: as §2

HIV-1 IN mutant Y143H = assay: single-round infectivity assay, Y143H IN mutant; type: cell-based
Procedure, shortened: (§3)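 Luciferase read-out from single-round infection with env-deleted HIV-1 vector (pNLNgoMIVR-ΔENV.LUC) bearing the IN mutant. EC50 from n = 4 independent experiments, triplicate each.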

HIV-1 IN mutant Y143C = assay: single-round infectivity assay, Y143C IN mutant; type: cell-based
Procedure, shortened: as §3

[4] = system: HIV-1 IN double mutant G140S/Q148H; conditions: single round infection; previously reported; cited from earlier work
HIV-1 IN mutant S119R = assay: single-round infectivity assay, S119R IN mutant; type: cell-based
Procedure, shortened: as §1

HIV-1 IN mutant N117A = assay: single-round infectivity assay, N117A IN mutant; type: cell-based
Procedure, shortened: as §1

[5] = system: HIV-1 IN double mutant G140S/Q148H; assay: single-round infectivity assay, G140S/Q148H IN double mutant; type: cell-based
Procedure, shortened: (§4)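 Single-round infection with luciferase-reporter HIV-1 vector (pNLNgoMIVR-ΔENV.LUC background) carrying WT or mutant integrase; EC50 values determined from infectivity in presence of compound, independent experiments run in triplicate.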

HIV-1 IN mutant P142A = assay: single-round infectivity assay, P142A IN mutant; type: cell-based
Procedure, shortened: as §3

HIV-1 IN mutant G118R [6] = conditions: single round infection; previously shown; cited from earlier work
HIV-1 IN mutant P142S = assay: single-round infectivity assay, P142S IN mutant; type: cell-based
Procedure, shortened: as §3

HIV-1 IN mutant N155H [7] = assay: single-round infectivity assay, N155H IN mutant; type: cell-based
Procedure, shortened: as §4

HIV-1 IN mutant N117H = assay: single-round infectivity assay, N117H IN mutant; type: cell-based
Procedure, shortened: as §1

HIV-1 IN mutant Y143R [8] = assay: single-round infectivity assay, Y143R IN mutant; type: cell-based
Procedure, shortened: as §4

[9] = fold change in EC50, IN mutant versus WT HIV-1

SMILES: Nc1c(C(=O)NCc2ccc(F)cc2F)c(=O)n(O)c2ncc(CCCCCCO)cc12 [4d]
- EC50 (HIV-1 IN mutant Y143R [1]): 2.1 ± 1.4 nM
- EC50 (WT HIV-1): 2.3 ± 0.6 nM
- EC50 (HIV-1 IN mutant N155H [2]): 2.7 ± 1 nM
- ratio of the EC50s (our compound relative to DTG) against G118R (HIV-1 IN mutant G118R [3]; EC50 compound / EC50 DTG): 0.5
- FC G118R (HIV-1 IN mutant G118R [3]; [9]): 2.8
- ratio of the EC50s (our compound relative to DTG) against R231K (HIV-1 IN mutant R231K): 0.6
- ratio of the EC50s (our compound relative to DTG) against P142H (HIV-1 IN mutant P142H; EC50 compound / EC50 DTG): 0.5
- EC50 (HIV-1 IN mutant P142H; Human immunodeficiency virus 1, read-out: EC50 values P142H): 1.5 ± 0.1 nM
- FC P142H (HIV-1 IN mutant P142H; [9]): 0.7
- ratio of the EC50s (our compound relative to DTG) against R231G (HIV-1 IN mutant R231G; EC50 compound / EC50 DTG): 0.9
- EC50 (HIV-1 IN mutant R231G; Human immunodeficiency virus 1, read-out: EC50 values R231G): 1.3 ± 0.2 nM
- FC R231G (HIV-1 IN mutant R231G; [9]): 0.6
- ratio of the EC50s (our compound relative to DTG) against S230R (HIV-1 IN mutant S230R; EC50 compound / EC50 DTG): 0.8
- EC50 (HIV-1 IN mutant S230R; Human immunodeficiency virus 1, read-out: EC50 values S230R): 3.8 ± 0.3 nM
- FC S230R (HIV-1 IN mutant S230R; [9]): 1.7
- ratio of the EC50s (our compound relative to DTG) against Y143H (HIV-1 IN mutant Y143H; EC50 compound / EC50 DTG): 0.8
- EC50 (HIV-1 IN mutant Y143H; Human immunodeficiency virus 1, read-out: EC50 values Y143H, single round infection, n = 4): 1.5 ± 0.1 nM
- FC Y143H (HIV-1 IN mutant Y143H; [9]): 0.7
- EC50 (HIV-1 IN mutant Y143H; read-out: EC50 values Y143H, single round infection, n = 4): < 3 nM
- ratio of the EC50s (our compound relative to DTG) against Y143C (HIV-1 IN mutant Y143C; EC50 compound / EC50 DTG): 0.9
- FC Y143C (HIV-1 IN mutant Y143C; [9]): 0.5
- EC50 [4]: 9.4 ± 3.6 nM
- ratio of the EC50s (our compound relative to DTG) against S119R (HIV-1 IN mutant S119R; EC50 compound / EC50 DTG): 0.9
- EC50 (HIV-1 IN mutant S119R; Human immunodeficiency virus 1, read-out: EC50 values S119R): 2.1 ± 0.1 nM
- FC S119R (HIV-1 IN mutant S119R; [9]): 0.9
- ratio of the EC50s (our compound relative to DTG) against N117A (HIV-1 IN mutant N117A; EC50 compound / EC50 DTG): 1.2
- EC50 (HIV-1 IN mutant N117A; Human immunodeficiency virus 1, read-out: EC50 values N117A): 0.6 nM
- FC N117A (HIV-1 IN mutant N117A; [9]): 0.3
- ratio of the EC50s (our compound relative to DTG) against G140S/Q148H ([5]; EC50 compound / EC50 DTG): 1.6
- FC G140S/Q148H [5, 9]: 4.1
- ratio of the EC50s (our compound relative to DTG) against P142A (HIV-1 IN mutant P142A; EC50 compound / EC50 DTG): 0.8
- EC50 (HIV-1 IN mutant P142A; Human immunodeficiency virus 1, read-out: EC50 values P142A): 2.1 ± 0.3 nM
- FC P142A (HIV-1 IN mutant P142A; [9]): 0.9
- EC50 (HIV-1 IN mutant G118R [6]): 6.4 ± 2.5 nM
- ratio of the EC50s (our compound relative to DTG) against P142S (HIV-1 IN mutant P142S; EC50 compound / EC50 DTG): 0.5
- EC50 (HIV-1 IN mutant P142S; Human immunodeficiency virus 1, read-out: EC50 values P142S): 1.2 ± 0.2 nM
- FC P142S (HIV-1 IN mutant P142S; [9]): 0.5
- ratio of the EC50s (our compound relative to DTG) against N155H (HIV-1 IN mutant N155H [7]; EC50 compound / EC50 DTG): 0.8
- FC N155H (HIV-1 IN mutant N155H [7]; [9]): 1.2
- ratio of the EC50s (our compound relative to DTG) against N117H (HIV-1 IN mutant N117H; EC50 compound / EC50 DTG): 1.3
- EC50 (HIV-1 IN mutant N117H; Human immunodeficiency virus 1, read-out: EC50 values N117H): 3 nM
- FC N117H (HIV-1 IN mutant N117H; [9]): 1.3
- ratio of the EC50s (our compound relative to DTG) against Y143R (HIV-1 IN mutant Y143R [8]; EC50 compound / EC50 DTG): 0.5
- FC Y143R (HIV-1 IN mutant Y143R [8]; [9]): 0.9
